Results on 4 compounds are retold here after patent US20260224597A1, “METHODS FOR ACTIVATING IMMUNE CELLS TO KILL BACTERIA” (The Texas A&M University System, priority 2023, published 2026).

One data set has as its system L. monocytogenes. The data set is classed as cell-based, Listeria monocytogenes.
The subject of a further data set is L. pneumophila. Format: cell-based, Legionella pneumophila.
Data set [1] deals with Mtb.
The test system of data set [2] is Mtb. In words: microbe, parasite or virus in culture. As to conditions: Mycobacterium tuberculosis, Macrophage, in Homo sapiens, 48 h, read-out: reduction of the viability of Mtb.
A further data set has as its system P. aeruginosa. Conditions: in Caenorhabditis elegans, Neville et al., 2021; cited from earlier work.
A further data set has as its system PPK2. As to conditions: in Pseudomonas aeruginosa, Neville et al., 2021; cited from earlier work.
For data set [3], the system named is Mtb. As to the kind of experiment: Transmission electron microscopy of Mtb cell envelope thickness. The data set is classed as cell-based, Mycobacterium tuberculosis. Conditions: TEM, 1 μg/ml INH and/or 5 μM gallein for 14 days.
In another data set the target is PPK1 (Pseudomonas aeruginosa, UniProt P0DP44). Conditions: in Pseudomonas aeruginosa, Neville et al., 2021; cited from earlier work.
In data set [4] the test system is Mtb. In words: microbe, parasite or virus in culture. The data set is classed as cell-based, Mycobacterium tuberculosis.
The next data set concerns the target IP6K1 (Homo sapiens, UniProt Q92551). Conditions: Liao 2021; read-out: IC50 as to IP6K1; cited from earlier work.

Where two headings read alike, the source gives them in different places.

IP6K1, sequence (Q92551 whole entry): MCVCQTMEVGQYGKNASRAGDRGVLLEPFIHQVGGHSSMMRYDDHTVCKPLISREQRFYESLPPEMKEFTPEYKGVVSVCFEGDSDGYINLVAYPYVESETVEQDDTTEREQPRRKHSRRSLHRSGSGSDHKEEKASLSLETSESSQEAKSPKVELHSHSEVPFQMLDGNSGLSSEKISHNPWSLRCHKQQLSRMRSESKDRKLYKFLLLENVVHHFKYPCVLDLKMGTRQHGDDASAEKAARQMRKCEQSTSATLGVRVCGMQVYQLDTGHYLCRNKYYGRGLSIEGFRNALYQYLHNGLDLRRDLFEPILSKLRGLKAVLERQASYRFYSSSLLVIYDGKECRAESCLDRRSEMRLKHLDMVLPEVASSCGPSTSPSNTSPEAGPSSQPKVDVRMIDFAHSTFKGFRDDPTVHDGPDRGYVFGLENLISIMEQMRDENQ
PPK1, sequence (P0DP44 whole entry): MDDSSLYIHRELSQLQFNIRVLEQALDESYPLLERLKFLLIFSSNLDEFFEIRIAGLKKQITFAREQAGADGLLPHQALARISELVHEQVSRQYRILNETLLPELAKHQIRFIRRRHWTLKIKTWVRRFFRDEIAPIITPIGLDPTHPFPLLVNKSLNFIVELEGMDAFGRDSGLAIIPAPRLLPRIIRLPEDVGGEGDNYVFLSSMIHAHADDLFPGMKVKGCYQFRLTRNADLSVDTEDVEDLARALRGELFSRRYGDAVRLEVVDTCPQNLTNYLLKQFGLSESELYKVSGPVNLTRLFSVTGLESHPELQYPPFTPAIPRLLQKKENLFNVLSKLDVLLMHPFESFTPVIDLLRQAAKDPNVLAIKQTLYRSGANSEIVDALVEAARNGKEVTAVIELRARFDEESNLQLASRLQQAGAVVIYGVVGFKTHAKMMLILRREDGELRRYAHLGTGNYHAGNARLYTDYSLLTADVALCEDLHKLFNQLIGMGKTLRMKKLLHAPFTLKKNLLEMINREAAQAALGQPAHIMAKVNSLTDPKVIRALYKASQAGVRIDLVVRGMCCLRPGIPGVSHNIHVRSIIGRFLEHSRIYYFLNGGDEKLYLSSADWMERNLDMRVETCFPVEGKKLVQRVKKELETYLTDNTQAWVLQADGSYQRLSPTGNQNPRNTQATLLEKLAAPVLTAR

Regarding `O=[N+]([O-])c1ccc(CNc2nc(NCc3cccc(C(F)(F)F)c3)nc3[nH]cnc23)cc1` [TNP, N6-[(4-nitrophenyl)methyl]-N2-[[3-(trifluoromethyl)phenyl]methyl]-9H-Purine-2,6-diamine], the “viability of ingested L. monocytogenes compared to control” value in the data set on L. monocytogenes is “reduced the viability”. Also, the “viability of ingested L. pneumophila compared to control” value in the data set with L. pneumophila is given as “reduced the viability”. For the same compound, in the data set with human macrophages, the “metabolic activity of macrophages” value is “reduced the metabolic activity” and the “metabolic activity of macrophages infected with Mtb” value is given as “did not significantly change”. In the data set with Mtb [1], the “number of ingested Mtb compared to control” value is “increased” and the “number of viable Mtb compared to control” value is “reduced the number of viable Mtb”. Also, in the data set with Mtb [2], the inhibition at 1 µM was approximately 50%.

For `O=C1OC2(c3ccccc31)c1ccc(O)c(O)c1Oc1c2ccc(O)c1O` [gallein, 3′,4′,5′,6′-Tetrahydroxyspiro[isobenzofuran-1(3H),9′-(9H)xanthen]-3-one], the “viability of ingested L. monocytogenes compared to control” value in the data set with L. monocytogenes was “reduced the viability”. For the same compound, in the data set with P. aeruginosa, the “virulence of P. aeruginosa” value is reported as “attenuates the virulence”. Moreover, the PPK2 enzyme activity result with PPK2 is given as “inhibits”. In the data set with L. pneumophila, the “viability of ingested L. pneumophila compared to control” value is on record as “reduced the viability”. Further, the “Mtb cell envelope thickness” value with Mtb [3] is reported as “did not significantly affect”. Besides, the “metabolic activity of macrophages infected with Mtb” value in the data set with human macrophages is on record as “did not significantly change”. Besides, the “metabolic activity of macrophages” value with human macrophages (human) was “None of the concentrations of MRS2279 and gallein significantly altered”. In addition, in the data set with Mtb [1], the “ingested Mtb viability compared to control” value is on record as “decreased ingested Mtb viability”, the “number of ingested Mtb compared to control” value was “increased”, the “number of viable Mtb compared to control” value was “reduced the number of viable Mtb” and the “viability of ingested Mtb compared to control” value is “reduced the viability”. In addition, the PPK1 enzyme activity result on PPK1 was “inhibits”. The “Mtb growth compared to control” value in the data set with Mtb [4] is reported as “slightly slowed growth”. In addition, the inhibition at 50 µM in the data set on Mtb [4] (Mycobacterium tuberculosis, 336 h, read-out: inhibition of Mtb growth) is approximately 80%.

A word on the IC50: it is the concentration that gives 50% inhibition. Regarding `Cn1sc(=O)n(Cc2ccccc2)c1=O` [LI-1753], the IC50 at IP6K1 was 2.15 µM.

With `NNC(=O)c1ccncc1` [INH, Isonicotinic acid hydrazide], the “Mtb cell envelope thickness” value with Mtb [3] was “increased”. For the same compound, in the data set with Mtb [4], the Mtb growth entry is given as “partial but not complete reduction”.
